Data published in PubChem BioAssay AID1963445 (Molecular Pharmacology Branch, DTP, NCI, 2024).

Test system: MCF7 complex spheroid growth, % test/control
Test: Anticancer human tumor MCF7 cell line growth inhibition [Asc];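 further: spheroids exposed to compounds for 7 days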;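 on viability, T/C: 100% = DMSO vehicle control wells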
Conditions: for IC50: curve of first compound; for viability, T/C: stronger effect = lower value; active means viability on the fitted dose curve at most 10% of control; inactive means the rest
Procedure, shortened: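 Tumor cells were grown as multicellular spheroids with stromal HUVEC and mesenchymal stem cells and treated singly or in combination. Concentrations fell in half-log steps from the clinical Cmax, or from 10 microM where none was known.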

[1] = second compound 0.00316 µM, first compound 0.00316 µM
[2] = second compound 0.00316 µM, first compound 0.01 µM
[3] = second compound 0.00316 µM, first compound 0.0316 µM
[4] = second compound 0.00316 µM, first compound 0.1 µM
[5] = second compound 0.00316 µM, first compound 0.316 µM
[6] = second compound 0.00316 µM, first compound 1 µM
[7] = second compound 0.01 µM, first compound 0.00316 µM
[8] = second compound 0.01 µM, first compound 0.01 µM
[9] = second compound 0.01 µM, first compound 0.0316 µM
[10] = second compound 0.01 µM, first compound 0.1 µM
[11] = second compound 0.01 µM, first compound 0.316 µM
[12] = second compound 0.01 µM, first compound 1 µM
[13] = second compound 0.0316 µM, first compound 0.00316 µM
[14] = second compound 0.0316 µM, first compound 0.01 µM
[15] = second compound 0.0316 µM, first compound 0.0316 µM
[16] = second compound 0.0316 µM, first compound 0.1 µM
[17] = second compound 0.0316 µM, first compound 0.316 µM
[18] = second compound 0.0316 µM, first compound 1 µM
[19] = second compound 0.1 µM, first compound 0.00316 µM
[20] = second compound 0.1 µM, first compound 0.01 µM
[21] = second compound 0.1 µM, first compound 0.0316 µM
[22] = second compound 0.1 µM, first compound 0.1 µM
[23] = second compound 0.1 µM, first compound 0.316 µM
[24] = second compound 0.1 µM, first compound 1 µM
[25] = second compound 0.316 µM, first compound 0.00316 µM
[26] = second compound 0.316 µM, first compound 0.01 µM
[27] = second compound 0.316 µM, first compound 0.0316 µM
[28] = second compound 0.316 µM, first compound 0.1 µM
[29] = second compound 0.316 µM, first compound 0.316 µM
[30] = second compound 0.316 µM, first compound 1 µM
[31] = second compound 1 µM, first compound 0.00316 µM
[32] = second compound 1 µM, first compound 0.01 µM
[33] = second compound 1 µM, first compound 0.0316 µM
[34] = second compound 1 µM, first compound 0.1 µM
[35] = second compound 1 µM, first compound 0.316 µM
[36] = second compound 1 µM, first compound 1 µM

CCN1CCN(Cc2ccc(Nc3ncc(F)c(-c4cc(F)c5nc(C)n(C(C)C)c5c4)n3)nc2)CC1 + CNC(C)C(=O)NC1CN(S(=O)(=O)c2cccc(S(=O)(=O)N3CCC4CCC(C(=O)NC(c5ccccc5)c5ccccc5)N4C(=O)C(NC(=O)C(C)NC)C3)c2)CCC2CCC(C(=O)NC(c3ccccc3)c3ccccc3)N2C1=O
< 3.16 nM: IC50 (second compound 0.00316 µM) | IC50 (second compound 0.01 µM) | IC50 (second compound 0.0316 µM) | IC50 (second compound 0.1 µM) | IC50 (second compound 0.316 µM) | IC50 (second compound 1 µM)
inactive: viability, T/C [1] 30.3% | viability, T/C [2] 32.9% | viability, T/C [3] 12.9% | viability, T/C [4] 20.2% | viability, T/C [5] 12.3% | viability, T/C [6] 14.1% | viability, T/C [7] 17.1% | viability, T/C [8] 10.8% | viability, T/C [9] 10.1% | viability, T/C [10] 10.1% | viability, T/C [11] 10.5% | viability, T/C [12] 11.8% | viability, T/C [13] 14.4% | viability, T/C [14] 9.49% | viability, T/C [15] 9.67% | viability, T/C [16] 11.8% | viability, T/C [17] 11.1% | viability, T/C [18] 10.6% | viability, T/C [19] 12.2% | viability, T/C [20] 10.9% | viability, T/C [21] 10.2% | viability, T/C [22] 8.76% | viability, T/C [23] 11.4% | viability, T/C [24] 10% | viability, T/C [25] 13.4% | viability, T/C [26] 13.1% | viability, T/C [27] 13.2% | viability, T/C [28] 11.2% | viability, T/C [31] 10.8% | viability, T/C [32] 12% | viability, T/C [33] 11.3% | viability, T/C [34] 10.8% | viability, T/C [35] 10.7% | viability, T/C [36] 8.18%
active: viability, T/C [29] 8.8% | viability, T/C [30] 8.66%

O=C(c1ccc(F)c(F)c1Nc1ccc(I)cc1F)N1CC(O)([C@@H]2CCCCN2)C1 + CNC(C)C(=O)NC1CN(S(=O)(=O)c2cccc(S(=O)(=O)N3CCC4CCC(C(=O)NC(c5ccccc5)c5ccccc5)N4C(=O)C(NC(=O)C(C)NC)C3)c2)CCC2CCC(C(=O)NC(c3ccccc3)c3ccccc3)N2C1=O
inactive: viability, T/C [1] 38.1% | viability, T/C [2] 41.5% | viability, T/C [3] 34.6% | viability, T/C [4] 26% | viability, T/C [5] 19.4% | viability, T/C [6] 12.3% | viability, T/C [7] 17.3% | viability, T/C [8] 14.8% | viability, T/C [9] 17.2% | viability, T/C [10] 12.9% | viability, T/C [11] 12.9% | viability, T/C [12] 11.6% | viability, T/C [13] 14.8% | viability, T/C [14] 15.4% | viability, T/C [15] 13.3% | viability, T/C [16] 16.4% | viability, T/C [17] 10.7% | viability, T/C [18] 10.2% | viability, T/C [19] 13.2% | viability, T/C [20] 13.5% | viability, T/C [21] 14.4% | viability, T/C [22] 12.3% | viability, T/C [23] 13.8% | viability, T/C [24] 9.72% | viability, T/C [25] 13.3% | viability, T/C [26] 14.3% | viability, T/C [27] 15.9% | viability, T/C [28] 12.5% | viability, T/C [29] 11.6% | viability, T/C [30] 12.4% | viability, T/C [31] 14.6% | viability, T/C [32] 13.8% | viability, T/C [33] 12.4% | viability, T/C [34] 12.9% | viability, T/C [35] 13% | viability, T/C [36] 13.2%
< 3.16 nM: IC50 (second compound 0.00316 µM) | IC50 (second compound 0.01 µM) | IC50 (second compound 0.0316 µM) | IC50 (second compound 0.1 µM) | IC50 (second compound 0.316 µM) | IC50 (second compound 1 µM)
